What is called IC50 is the concentration that gives 50% inhibition.

Entries after “also recorded” stand apart in the source; their conditions may differ. Like-named read-outs stand apart in the source and are kept apart here.

This note sets out measurements from patent US10167270B2, “Substituted quinazoline compounds and uses thereof for modulating glucocerebrosidase activity” (Northwestern University, priority 2015, dated 2019).

Assay [1] has as its target T1, wild-type GCase (Homo sapiens (Human), UniProt P04062). Nature of the assay: GCase enzyme activity assay (4MU-β-Glc, no taurocholate). Format: biochemical. The method, then:
In previous studies, high concentrations of taurocholate (4-10 mM) were used to improve the signal in GCase enzyme activity assays^16,27,28. […] Here we describe our modifications of the substituents on the quinazoline ring.
4-Methylumbelliferyl β-D-glucopyranoside (4MU-β-Glc), 4-methylumbelliferyl α-D-glucopyranoside,4-methylumbelliferyl α-D-galactopyranoside, and buffer components were purchased from Sigma-Aldrich (St. Louis, Mo.). The recombinant wild-type GCase enzyme velaglucerase alfa (Vpriv®, Shire Human Genetic Therapies, Inc.), acid α-glucosidase enzyme alglucosidase alfa (Lumizyme®, Genzyme Corporation), α-galactosidase A enzyme agalsidase beta (Fabrazyme®, Genzyme Corporation) were used in activity assays. […] A solution of 1 M sodium hydroxide and 1 M glycine (pH 10) was used as the stop solution for all three enzyme activity assays.
The compounds in DMSO solution (0.5 μL/well) were transferred to a black 96-well plate (the final titration started from 100 μM, a 12 or 24-point 2-fold dilution series). […] After 5 min of incubation at room temperature, the enzyme reaction was initiated by the addition of blue substrate (4MU-13-Glc) (33 μL/well). The final concentration of the blue substrate was 1.5 mM. The blue substrate reaction was terminated by the addition of 33 μL/well stop solution (1 M NaOH and 1 M glycine mixture, pH 10) after 30 min of incubation at 37° C. […] The selected compounds were further assayed under pH 5.0 and pH 7.0 to evaluate their selectivity under various pH conditions.

The target of assay [2] is acid α-glucosidase (GAA) (Homo sapiens (Human), UniProt P10253). Nature of the assay: Enzyme selectivity assay, acid α-glucosidase. In kind it is biochemical. The following applies: up to 100 μM. The text has this:
(§1) Louis, Mo.). The recombinant wild-type GCase enzyme velaglucerase alfa ([…] Human Genetic Therapies, Inc.), acid α-glucosidase enzyme alglucosidase alfa (Lumizyme®, Genzyme Corporation), α-galactosidase A enzyme agalsidase beta (Fabrazyme®, Genzyme Corporation) were used in activity assays. […] The acid α-glucosidase and α-galactosidase A enzyme activity assay methods were similar to the GCase enzyme activity assay above with slight modifications.

Assay [3] deals with α-galactosidase A (GLA) (Homo sapiens (Human), UniProt P06280). Nature of the assay: Enzyme selectivity assay, α-galactosidase A. In kind it is biochemical. The following applies: up to 100 μM.
Chain of α-galactosidase A (GLA) (P06280 32-429): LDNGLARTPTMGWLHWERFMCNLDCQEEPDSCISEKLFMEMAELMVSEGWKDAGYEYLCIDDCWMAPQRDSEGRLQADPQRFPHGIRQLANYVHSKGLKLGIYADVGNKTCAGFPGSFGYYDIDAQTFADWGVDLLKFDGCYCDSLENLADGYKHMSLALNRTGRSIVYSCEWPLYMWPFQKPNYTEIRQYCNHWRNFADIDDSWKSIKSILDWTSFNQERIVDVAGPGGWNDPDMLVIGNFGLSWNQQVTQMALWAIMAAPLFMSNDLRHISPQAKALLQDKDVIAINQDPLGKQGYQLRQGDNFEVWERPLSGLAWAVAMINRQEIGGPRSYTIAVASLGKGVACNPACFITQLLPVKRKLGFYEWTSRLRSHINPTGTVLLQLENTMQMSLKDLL
Excerpt: as §1

For assay [4], the target named is T1, wild-type GCase. Nature of the assay: Fluorescence thermal shift analysis. Format: binding. The conditions noted are these: pH 5.0, in words. The text has this: Compounds shown to act as pharmacological chaperones for GCase (or other lysosomal enzymes) also stabilize the enzyme against thermal denaturation. A fluorescent thermal shift assay was developed to evaluate the binding affinity of ligands with protein^30. […] The maximum thermal shift of these compounds corresponded to their inhibitory activity at pH 5.0.
A robotic pipeline in the High Throughput Analysis Laboratory (HTAL) was used for protein ligand screening by fluorescence thermal shift (FTS) analysis. The pipeline used a Mosquito robot (TTP Labtech) for protein dispensing and an Echo 550 (Labcyte) to add compounds. Thermal scanning coupled with fluorescence detection was performed on a real-time PCR machine CFX384 (Bio-Rad Laboratories). The assay was run in 384-well PCR plates, using 10 μL citric acid/K2HPO4 buffer (50 mM citric acid, 150 mM K2HPO4, pH 5.0) per well. The assay concentration for protein was 1 μM and that for Sypro Orange (Invitrogen) was 5×. Protein was premixed with Sypro Orange and dispensed to a plate first, and compounds were added. Final concentrations of compounds ranged from 0.5 to 200 μM. Then the plate was sealed with an optical seal, shaken, and centrifuged. The thermal scan was from 10 to 95° C. with a temperature ramp rate of 1.5° C./min. The fluorescence was recorded every 10 sec. Data analysis and report generation were performed using the in-house software excelFTS.

Assay [5] deals with Glucocerebrosidase (Homo sapiens (Human), UniProt P04062). Nature of the assay: Glucocerebrosidase activity assay with blue substrate (4MU-Glc). In kind it is biochemical. How it is done:
The compounds in DMSO solution 0.5 μL/well were transferred to a black 96-well plate. The final titration was 24 nM to 50 μM, 12 concentrations, 2 times dilution. […] After 5 min of incubation at room temperature, the enzyme reaction was initiated by the addition of 33 μL/well blue substrate. Final concentrations of the blue substrate (4MU-Glc) was 1.5 mM. The blue substrate reaction was terminated by the addition of 33 μL/well stop solution (1 M NaOH and 1 M glycine mixture, pH 10) after 30 min of incubation at 37° C. The fluorescence was then measured in the Biotek Synergy H1 multi-mode plate reader with Ex=365 nm and Em=440 nm.
Additional compounds were prepared and tested according to the procedures provided in the examples above.
Additional substituted quinazoline compounds were prepared and tested according to the procedures provided in the examples above.

[6] abbreviates: Table 5, pH 5.9, mean ± SD, read-out: IC50.
Setting [7] is: Table 3, pH 5.9, mean ± SD, read-out: IC50.
The mark [8] stands for this setting: Table 1, pH 5.9, mean ± SD, read-out: IC50.
Where [9] appears, read: Table 2, pH 5.9, mean ± SD, read-out: IC50.
[10] abbreviates: Table 4, pH 5.9, mean ± SD, read-out: IC50.
Setting [11] is: marked (inh), inhibitor, read-out: IC50 or AC50 (inh).

T1 sequence (P04062 40-536): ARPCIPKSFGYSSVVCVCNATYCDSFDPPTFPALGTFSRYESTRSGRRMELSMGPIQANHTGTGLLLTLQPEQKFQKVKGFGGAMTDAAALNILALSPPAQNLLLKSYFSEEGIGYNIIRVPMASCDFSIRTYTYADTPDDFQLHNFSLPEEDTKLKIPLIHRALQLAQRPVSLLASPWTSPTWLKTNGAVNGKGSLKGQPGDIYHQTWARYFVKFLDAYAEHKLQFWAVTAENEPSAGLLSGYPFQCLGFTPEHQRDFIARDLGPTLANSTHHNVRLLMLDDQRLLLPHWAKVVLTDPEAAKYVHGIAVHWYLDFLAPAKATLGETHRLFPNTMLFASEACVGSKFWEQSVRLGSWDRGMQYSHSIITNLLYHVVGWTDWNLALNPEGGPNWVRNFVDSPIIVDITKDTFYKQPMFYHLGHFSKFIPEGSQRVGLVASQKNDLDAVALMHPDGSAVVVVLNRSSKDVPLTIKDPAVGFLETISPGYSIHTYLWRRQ
Chain of Glucocerebrosidase (P04062 40-536): as above

In the case of `CN(C)C1CCC(Nc2nc(-c3cccnc3)nc3ccccc23)CC1` (stereo not drawn) [Compound 6g], the IC50 result in assay [1] (Table 1, pH 5.9, mean ± SD) is recorded as “Inactive”.
As to `Cc1ccc(-c2nc(NC3Cc4ccccc4C3)c3ccccc3n2)cn1` [Compound 11c, N-(2,3-dihydro-1H-inden-2-yl)-2-(6-methylpyridin-3-yl)quinazolin-4-amine], the IC50 in assay [1] (setting [6]) is 29.4 ± 3.6 nM.
Regarding `c1cncc(CCNc2nc(-c3cccnc3)nc3ccccc23)c1` [Compound 8g], the IC50 in assay [1] (setting [7]) came to 4290 ± 570 nM.
Take `Cc1ccncc1-c1nc(NC2Cc3ccccc3C2)c2ccccc2n1` [Compound 11a, N-(2,3-dihydro-1H-inden-2-yl)-2-(4-methylpyridin-3-yl)quinazolin-4-amine]: in assay [1] (setting [6]), the IC50 is 122 ± 12 nM.
As to `CC1(C)CCC(Nc2nc(-c3cccnc3)nc3ccccc23)CC1` [Compound 6e], in assay [1] (setting [8]), the IC50 was 431 ± 42 nM.
Regarding `c1ccc(CNc2nc(-c3cccnc3)nc3ccccc23)cc1` [Compound 8b], the 50% inhibitory concentration (IC50) in assay [1] (setting [7]) was found to be 5770 ± 820 nM.
As to `c1ccc2c(c1)CC(Nc1nc(-c3ccncc3)nc3ccccc13)C2` [Compound 11e, N-(2,3-dihydro-1H-inden-2-yl)-2-(pyridin-4-yl)quinazolin-4-amine], the IC50 in assay [1] (setting [6]) worked out at 168 ± 18 nM.
Regarding `c1ccc(CCCNc2nc(-c3cccnc3)nc3ccccc23)cc1` [Compound 8d], the IC50 in assay [1] (setting [7]) was determined as 1530 ± 220 nM.
With `c1cncc(-c2nc(NCC3CCCCC3)c3ccccc3n2)c1` [Compound 7h], the IC50 in assay [1] (setting [9]) was found to be 405 ± 40 nM.
Take `c1ccc(CCNc2nc(-c3cccnc3)nc3ccccc23)nc1` [Compound 8f]: the 50% inhibitory concentration (IC50) in assay [1] (setting [7]) is 1400 ± 120 nM.
As for `CCC1CCC(Nc2nc(-c3cccnc3)nc3ccccc23)CC1` (stereo not drawn) [Compound 6b], the IC50 in assay [1] (setting [8]) worked out at 126 ± 7 nM.
Take `c1ccc(CCCCNc2nc(-c3cccnc3)nc3ccccc23)cc1` [Compound 8e]: the concentration for half-maximal inhibition (IC50) in assay [1] (setting [7]) worked out at 1280 ± 130 nM.
Turning to `c1cncc(-c2nc(NC3CCc4ccccc4C3)c3ccccc3n2)c1` (single isomer, unassigned) [Compound 9a], the “activity of acid α-glucosidase on compound treatment” value in assay [2] was “not significantly changed”. Besides, in assay [1], the “decrease of inhibitory activity at pH 5.0 compared to pH 5.9” value is on record as 3 fold. The “activity of α-galactosidase A on compound treatment” value in assay [3] is reported as “not significantly changed”. In assay [4], the “stabilization of GCase (melting point change)” value was “stabilize wild-type GCase in a dose-dependent manner; also recorded: increased the GCase melting point in a dose-dependent manner”.
`c1cncc(-c2nc(NC3CCC3)c3ccccc3n2)c1` [Compound 7d]: in assay [1] (setting [9]), the IC50 came out at 2840 ± 340 nM.
Regarding `CC1CCC(Nc2nc(-c3cccnc3)nc3ccccc23)CC1` (single isomer, unassigned) [Compound 6a], in assay [1] (setting [8]), the IC50 amounted to 56 ± 5 nM.
Turning to `c1cncc(-c2nc(NC3CCc4ccccc43)c3ccccc3n2)c1` (stereo not drawn) [Compound 9e], the “GCase inhibitory activity in words” value in assay [1] is listed as “low micromolar range”. The IC50 in assay [1] (setting [10]) is 821 ± 73 nM.
Regarding `c1cncc(-c2nc(NC3CCCCCCC3)c3ccccc3n2)c1` [Compound 7a], in assay [1] (setting [9]), the IC50 is 27 ± 2 nM.
Regarding `CN1CCC(Nc2nc(-c3cccnc3)nc3ccccc23)CC1` [Compound 6i], the half-maximal inhibitory concentration (IC50) entry in assay [1] (Table 1, pH 5.9, mean ± SD) was “Inactive”.
For the compound `c1cncc(-c2nc(NC3CCCC3)c3ccccc3n2)c1` [Compound 7c], in assay [1] (setting [9]), the IC50 is 720 ± 50 nM.
Turning to `c1cncc(-c2nc(NCCC3CCCCC3)c3ccccc3n2)c1` [Compound 7i], in assay [1] (setting [9]), the IC50 turned out to be 857 ± 33 nM.
As to `c1cncc(-c2nc(NC3CC3)c3ccccc3n2)c1` [Compound 7e], the IC50 in assay [1] (setting [9]) was 28100 ± 3210 nM.
Take `COC1CCC(Nc2nc(-c3cccnc3)nc3ccccc23)CC1` (stereo not drawn) [Compound 6d]: in assay [1] (setting [8]), the IC50 worked out at 251 ± 18 nM.
For `Cc1cncc(-c2nc(NC3Cc4ccccc4C3)c3ccccc3n2)c1` [Compound 11b, N-(2,3-dihydro-1H-inden-2-yl)-2-(5-methylpyridin-3-yl)quinazolin-4-amine], in assay [1] (setting [6]), the IC50 is 12.5 ± 1.7 nM.
Turning to `c1ccc(CCNc2nc(-c3cccnc3)nc3ccccc23)cc1` [Compound 8c], the IC50 in assay [1] (setting [7]) is 97 ± 9 nM.
For the compound `c1cncc(-c2nc(NC3CCCOC3)c3ccccc3n2)c1` (stereo not drawn) [Compound 6h], the IC50 in assay [1] (setting [8]) is 891 ± 23 nM.
Still for that read-out and setting: the figure for `CC(C)N1CCC(Nc2nc(-c3cccnc3)nc3ccccc23)CC1` [Compound 6j] is 33200 ± 9710 nM.
`c1ccc(Nc2nc(-c3cccnc3)nc3ccccc23)cc1` [Compound 8a]: the “GCase inhibitory activity in words” value in assay [1] is recorded as “lost activity”. The IC50 entry in assay [1] (Table 3, pH 5.9, mean ± SD) is “inactive”. In addition, in assay [4], the “stabilization of GCase (melting point change)” value is “did not change the melting points significantly”.
Take `FC1(F)CCC(Nc2nc(-c3cccnc3)nc3ccccc23)CC1` [Compound 6f]: the IC50 in assay [1] (setting [8]) was 234 ± 17 nM.
Consider `c1ccc(CN2CCC(Nc3nc(-c4cccnc4)nc4ccccc34)CC2)cc1` [Compound 6k], for which the IC50 in assay [1] (setting [8]) was determined as 36100 ± 8720 nM.
With `c1cncc(-c2nc(NC34CC5CC(CC(C5)C3)C4)c3ccccc3n2)c1` [Compound 7f], the IC50 in assay [1] (setting [9]) came out at 926 ± 80 nM.
As to `c1cncc(-c2nc(NC3CCCc4ccccc43)c3ccccc3n2)c1` (stereo not drawn) [Compound 9d], the “GCase inhibitory activity in words” value in assay [1] is “low micromolar range”. Further, the IC50 in assay [1] (setting [10]) stood at 872 ± 71 nM.
Take `c1cncc(-c2nc(NC3CC4CCC3C4)c3ccccc3n2)c1` (stereo not drawn) [Compound 7g]: the IC50 in assay [1] (setting [9]) worked out at 282 ± 43 nM.
For `c1cncc(-c2nc(NC3Cc4ccccc4C3)c3ccccc3n2)c1` [Compound 9c], the IC50 in assay [1] (setting [10]) stood at 8.3 ± 1 nM; in assay [1] (pH 5.0, mean ± SD, read-out: IC50 pH 5.0), 25.9 ± 3.9 nM; in assay [1] (pH 7.0, mean ± SD, read-out: IC50 pH 7.0) it was 12.7 ± 1.4 nM.
`c1coc(-c2nc(NC3Cc4ccccc4C3)c3ccccc3n2)c1` [Compound 11h, N-(2,3-dihydro-1H-inden-2-yl)-2-(furan-2-yl)quinazolin-4-amine]: in assay [1] (setting [6]), the IC50 worked out at 21.1 ± 2.4 nM.
`c1cncc(-c2nc(NC3CCCCCC3)c3ccccc3n2)c1` [Compound 7b]: the IC50 in assay [1] (setting [9]) came to 42 ± 3 nM.
In the case of `c1ccc(CN2CCC(Nc3nc(-c4cccnc4)nc4ccccc34)CC2)cc1` [compound 44], the IC50 in assay [5] (setting [11]) came to 31.6 µM.
Take `c1ccc(CCCNc2nc(-c3cccnc3)nc3ccccc23)cc1` [compound 52]: the IC50 in assay [5] (setting [11]) is 1.78 µM.
On the same count and under the same terms, with `c1cncc(-c2nc(N3CCNCC3)c3ccccc3n2)c1` [compound 23] the figure was 35.5 µM.
Take `CN(CCOc1ccccc1)c1nc(-c2ccc(F)cc2)nc2ccccc12` [compound 129]: the “Activity AC50 or IC50” value in assay [5] (direction not given) is given as “Inactive”.
Take `CC1CCC(Nc2nc(-c3cccnc3)nc3ccccc23)CC1` (single isomer, unassigned) [Compound 6c]: the IC50 stood at 20 ± 2 nM in assay [1] (setting [8]) and 20 nM in assay [1] (read-out: IC50).
Take `c1cncc(-c2nc(NC3CC3)c3ccccc3n2)c1` [compound 42]: in assay [5] (setting [11]), the 50% inhibitory concentration (IC50) is 39.8 µM.
Turning to `c1cncc(-c2nc(NC3CC4CCC3C4)c3ccccc3n2)c1` (stereo not drawn) [compound 78], the IC50 in assay [5] (setting [11]) turned out to be 0.355 µM.
For the compound `c1ccc(OCCCNc2nc(-c3cccnc3)nc3ccccc23)cc1` [compound 91], the half-inhibitory concentration (IC50) in assay [5] (marked inhibitor, read-out: Activity AC50 or IC50 (inhibitor)) is 2.82 µM.
With `CN(CCOc1ccccc1)c1nc(-c2ccccn2)nc2ccccc12` [compound 143], the “Activity AC50 or IC50 (activator)” value in assay [5] (marked activator, AC50) was “Weak activator”.
